Where two headings read alike, the source gives them in different places.
How the values were obtained:
[1] = tested on: major CNS targets, including common G protein-coupled receptors, ion channels, enzymes, and transporters; assay: Pharmacological screening on major CNS targets; settings: testing concentration of 10 μM
[2] = biological target: T1, CYP46A1 (Mus musculus, UniProt Q9WVK8); assay: Brain binding in Cyp46A1 knockout versus control mice; set-up: from tissue; host or cells: mouse brain (Cyp46A1+/+ controls; 3xTg-AD mice and controls)
Source text: A consideration in CNS-targeted PET constitutes the ability of the tracer to selectivity bind to a target protein while lacking interactions with other abundant brain proteins.

[3] = biological target: T2, human CYP46A1 (hCYP46A1) (Homo sapiens, UniProt Q9Y6A2); assay: Cell uptake studies in HEK cells overexpressing hCYP46A1; assay type: cell-based
T2 construct: expressed in transfected cells; host or cells: HEK cells (HEK-CYP46A1)
Experimental: Cell uptake studies were conducted with transfected human embryonic kidney (HEK) cells overexpressing human CYP46A1 (hCYP46A1) and respective controls.
Cell uptake assays were conducted using hCYP46A1 enzyme-HEK cell line (HEK-CYP46A1) and HEK control cells were cultured in Dulbecco's modified Eagle's medium (DMEM) supplemented with 10% fetal bovine serum and antibiotics (0.1 mg/ml streptomycin and 100 IU/ml penicillin). Cells were kept under standard conditions at 37° C. and 5% CO2 and subsequently subpassaged using a solution of 0.25% trypsin and 0.02% EDTA. For cell uptake measurements, HEK-CYP46A1 and HEK control cells were seeded into a 24-well plate at a density of 2×10^5 cells per well the day before the experiment. The medium was replaced with fresh DMEM including ^18F-CHL-2205 (ca. 74 kBq per well) and incubated at 37° C. for 15, 30, and 45 min. The supernatant was collected, and the cells were washed twice with cold 1×phosphate-buffered salinc (PBS) and then harvested by adding 200 μl of 1N NaOH followed by additional two times rinsing with 1×PBS. The blocking assay was performed with the HEK-CYP46A1 cells. […] Supernatant and cell suspensions including 1×PBS from each wash step were collected and then measured using a gamma counter, whereas cell uptake was expressed as the percentage of the added dose after decay correction.

[4] = biological target: T1, CYP46A1; assay: Saturation binding studies with brain homogenates; set-up: species or system rodent
Experimental: Experiments were performed to determine whether a targeted PET imaging probe would allow the quantification of cholesterol metabolism in the living brain, ultimately paving the way for mechanistic studies on brain cholesterol metabolism in humans. […] The tracer distribution matched closely with the Allen Brain Atlas distribution of CYP46A1 expression data in the mouse brain. Quantification of CYP46A1 by Western blot analysis in the same brain regions confirmed that tracer binding patterns were in concert with CYP46A1 expression across all tested brain regions. Saturation binding studies were performed to determine the dissociation constant (KD) of the probe as well as to assess the amount of available CYP46A1 protein (Bmax) in selected brain regions.

[5] = biological target: T1, CYP46A1; assay: PET imaging in 3xTg-AD mice and controls; assay type: in vivo; set-up: from tissue; host or cells: mouse brain (Cyp46A1+/+ controls; 3xTg-AD mice and controls); settings: baseline, intravenous administration
Experimental: Tracer binding was assessed and validated in the 3xTg-AD mouse model. […] Hippocampal uptake of the CYP46A1 tracer was compared between 3xTg-AD mice and respective controls.
(§1) CD1, 3×Tg-AD mice and respective controls (sex: female, age: 9 to 13 months), as well as rats were purchased from established commercial vendors and kept under a 12-hour light/12-hour dark cycle, with ad libitum food and water. Animals were allowed to acclimatize for at least 1 week before the start of the experimental procedures. Mice and rats were anesthetized with isoflurane and scanned in a μPET/computed tomography (CT) scanner for 60 min after tail-vein injection of 18F-CHL-2205. Data were reconstructed in user-defined time frames. Time-activity curves (TACs) were calculated with predefined regions of interest. Results are presented as area under the curve (AUC) from the respective TACs of SUVs, indicating the decay-corrected radioactivity per cubic centimeter, divided by the injected dose per gram of body weight.

[6] = Incubation with rat liver microsomes (radiodefluorination); assay type: in vitro ADME
[7] = Dosimetry experiments; assay type: in vivo
[8] = biological target: T3, CYP46A1 (Homo sapiens, UniProt Q9Y6A2); assay: Clinical PET study in healthy volunteers; assay type: in vivo; set-up: from tissue; host or cells: brain of living healthy volunteers; settings: CYP46A1-rich regions
Experimental: Eight healthy participants underwent a PET scan with 18F-CHL-2205, followed by a magnetic resonance imaging (MRI) scan for anatomical orientation. Because of the physical half-life of fluorine-18 (109.8 min), the tracer was produced on the day of the experiment in a designated hot cell that provided shielding from radiation exposure and was equipped with an automated synthesis module. PET scans were performed for a duration of 90 min, and the data were subsequently reconstructed to allow the assessment of tracer uptake as a surrogate for CYP46A1 abundancy and cholesterol metabolism.
Experiments were performed to determine whether CYP46A1-targeted PET was sensitive to sex differences in brain cholesterol metabolism. […] Conversely, there was no difference in tracer uptake for low-target density regions such as the cerebellum and brainstem. These findings imply that considerable sex differences in brain cholesterol metabolism via CYP46A1 exist in humans.
An open-label clinical study to evaluate the tolerability, safety, and tracer performance characteristics of 18F-CHL-2205 in healthy volunteers (four men and four women, 22 to 31 years of age) was conducted. […] Volumes of distribution were further determined by Logan graphical analysis and were used to calculate binding potentials. […]

[9] = assay type: in vitro ADME, VHP
Experimental: (§2) PET imaging studies were conducted by intravenous injection of 18F-CHL-2205 to rats. […] Greater than 99% of the brain signal was attributed to the intact parent tracer. The brain signal was substantially devoid of interference by radiometabolites. By ex vivo studies, greater than 90% of the signal in the brain was specific at 15, 30, and 45 min after injection.

[10] = Incubation with human liver microsomes (radiodefluorination); assay type: in vitro ADME
[11] = biological target: T4, CYP46A1 (Rattus norvegicus, UniProt A0ACM8QFK4); assay: PET imaging and ex vivo brain studies after intravenous injection to rats; assay type: in vivo
T4 construct: from tissue; host or cells: brain of living rats
Experimental: as §2, §1

[12] = Incubation with mouse liver microsomes (radiodefluorination); assay type: in vitro ADME
[13] = biological target: T5, CYP46A1 (Macaca mulatta, UniProt I2CYF7); assay: Target occupancy PET study in rhesus monkeys; assay type: in vivo; set-up: from tissue; host or cells: brain of living rhesus monkeys; settings: rhesus monkey; dose of 0.9 μmol/kg intravenous, all regions
Experimental: Four rhesus monkeys (4.8 to 9.3 kg) were anesthetized by intramuscular injection of ketamine (10 mg/kg) and then put on the MRI scanning bed in the supine position. Whole-brain images were acquired. For PET, the subjects were initially anesthetized with ketamine (10 mg/kg, intramuscularly), put on the scanning bed, and maintained under anesthesia with 2% isoflurane and 98% oxygen. All rhesus monkeys were supine, and a stereotactic frame was used to fix the position of the head. […] PET/CT and MR images were co-registered. TACs were derived from the respective volumes of interest and were presented as SUVs, which were decay-corrected to the time of radioligand injection. Whole-blood samples were collected from an arterial catheter to measure radioactivity in whole blood and plasma. […]
Then, the mixture was injected into a high-performance liquid chromatography (HPLC) system equipped with a semipreparative IIPLC column and an ultraviolet detector with the wavelength set at 254 nm. […] The HPLC fractions were collected at 30-s intervals for 13 min; each fraction was counted with automatic gamma well counter. […] Tissue volumes of distribution (VT) and non-displaceable binding potential (BPND) values were determined from a two-tissue compartment model, with metabolite-corrected arterial input function.

[14] = biological target: T3, CYP46A1; assay: Competitive displacement of 18F-CHL-2205; assay type: binding
[15] = biological target: T5, CYP46A1; assay: In vitro autoradiography of NHP brain; assay type: binding, NHPs; set-up: from tissue; host or cells: NHP brain sections; settings: excess blocker
Experimental: PET imaging experiments were conducted in non-human primates (NHPs). Consistent with observations from rodent data, the signal intensity of tracer binding correlated with high abundancy regions for CYP46A1, including the putamen, caudate, and limbic cortical regions such as superficial layers of temporal, insular, and cingulate cortex, as evidenced by in vitro autoradiograms of the brain.

T4 sequence (A0ACM8QFK4 29-500): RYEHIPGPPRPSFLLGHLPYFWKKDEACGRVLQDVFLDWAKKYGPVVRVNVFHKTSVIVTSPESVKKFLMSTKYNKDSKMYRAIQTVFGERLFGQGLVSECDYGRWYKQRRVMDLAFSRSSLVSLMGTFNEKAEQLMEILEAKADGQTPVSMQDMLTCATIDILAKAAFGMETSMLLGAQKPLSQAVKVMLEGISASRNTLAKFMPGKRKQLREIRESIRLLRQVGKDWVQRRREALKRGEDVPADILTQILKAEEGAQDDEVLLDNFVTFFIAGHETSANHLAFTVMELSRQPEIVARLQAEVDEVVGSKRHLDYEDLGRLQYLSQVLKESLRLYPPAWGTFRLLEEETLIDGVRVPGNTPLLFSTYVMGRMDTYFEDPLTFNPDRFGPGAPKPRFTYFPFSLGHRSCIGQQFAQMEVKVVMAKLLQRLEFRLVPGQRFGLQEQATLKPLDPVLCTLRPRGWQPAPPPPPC
T1 sequence (Q9WVK8 whole entry): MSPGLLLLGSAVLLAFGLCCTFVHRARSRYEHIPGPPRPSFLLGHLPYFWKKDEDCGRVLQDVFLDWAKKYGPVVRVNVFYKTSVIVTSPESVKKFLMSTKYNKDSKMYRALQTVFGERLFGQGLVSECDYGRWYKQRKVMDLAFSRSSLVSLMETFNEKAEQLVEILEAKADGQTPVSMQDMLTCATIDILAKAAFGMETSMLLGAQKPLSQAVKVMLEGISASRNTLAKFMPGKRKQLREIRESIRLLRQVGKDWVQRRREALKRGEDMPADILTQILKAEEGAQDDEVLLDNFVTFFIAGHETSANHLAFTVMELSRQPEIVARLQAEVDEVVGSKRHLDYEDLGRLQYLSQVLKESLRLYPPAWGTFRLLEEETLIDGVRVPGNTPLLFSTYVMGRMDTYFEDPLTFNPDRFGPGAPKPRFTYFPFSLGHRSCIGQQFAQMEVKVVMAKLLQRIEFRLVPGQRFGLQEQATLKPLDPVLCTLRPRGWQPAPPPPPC
T3 sequence (Q9Y6A2 whole entry): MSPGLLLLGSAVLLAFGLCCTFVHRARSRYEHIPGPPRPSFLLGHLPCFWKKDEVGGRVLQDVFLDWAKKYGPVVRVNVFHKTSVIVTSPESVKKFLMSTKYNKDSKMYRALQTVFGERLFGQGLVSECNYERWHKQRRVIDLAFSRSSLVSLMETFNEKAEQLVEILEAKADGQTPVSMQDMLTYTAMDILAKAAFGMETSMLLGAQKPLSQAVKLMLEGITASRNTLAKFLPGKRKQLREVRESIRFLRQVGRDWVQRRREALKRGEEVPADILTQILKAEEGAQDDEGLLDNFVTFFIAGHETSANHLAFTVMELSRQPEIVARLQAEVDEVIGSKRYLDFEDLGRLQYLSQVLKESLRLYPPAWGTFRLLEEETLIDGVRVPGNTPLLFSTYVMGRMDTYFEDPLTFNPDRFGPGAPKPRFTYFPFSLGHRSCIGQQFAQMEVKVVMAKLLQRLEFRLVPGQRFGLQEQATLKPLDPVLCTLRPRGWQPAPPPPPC
T5 sequence (I2CYF7 29-500): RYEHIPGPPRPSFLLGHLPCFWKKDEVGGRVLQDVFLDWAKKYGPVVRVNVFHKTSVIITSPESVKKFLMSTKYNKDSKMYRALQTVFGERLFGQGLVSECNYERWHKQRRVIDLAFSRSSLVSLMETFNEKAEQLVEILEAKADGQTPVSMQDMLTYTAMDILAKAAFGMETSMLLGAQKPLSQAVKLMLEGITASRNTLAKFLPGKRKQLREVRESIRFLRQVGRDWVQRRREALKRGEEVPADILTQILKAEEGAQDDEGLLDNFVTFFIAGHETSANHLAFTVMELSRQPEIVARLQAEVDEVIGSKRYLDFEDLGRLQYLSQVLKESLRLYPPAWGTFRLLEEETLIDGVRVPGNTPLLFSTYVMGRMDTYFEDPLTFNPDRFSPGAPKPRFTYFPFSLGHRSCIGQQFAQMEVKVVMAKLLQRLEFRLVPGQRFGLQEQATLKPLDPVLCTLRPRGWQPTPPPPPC
T2 sequence (Q9Y6A2 whole entry): as the sequence (Q9Y6A2 whole entry) above

off-target activity [1]	tracer binding in brains of Cyp46A1−/− animals versus control ([2]; Cyp46A1−/− vs Cyp46A1+/+ mice)	cell uptake in transfected cells compared to controls ([3]; HEK cells overexpressing hCYP46A1 vs HEK controls)	Bmax (amount of available CYP46A1 protein) ([4]; cerebellum) [fmol/g]	Bmax (amount of available CYP46A1 protein) ([4]; striatum) [fmol/g]	hippocampal time-activity curves (TACs) in 3xTg-AD mice versus controls [5]	stability against radio defluorination [6]	effective dose [7] [mSv/MBq]	SUV15-30 in the caudate and putamen, women versus men [8]	stability against radio defluorination [9]	stability against radio defluorination [10]	brain signal attributed to the intact parent tracer ([11]; brain)	specific signal in the brain ([11]; ex vivo studies, 15, 30, and 45 min after injection)	brain uptake after systemic administration ([11]; rats, intravenous injection, PET)	stability against radio defluorination [12]	SMILES	tracer binding in control brains under blockade ([2]; excess dose, Cyp46A1+/+ brains)	receptor occupancy at 0.9 µmol/kg [13] [%]	tracer signal of the transfected cell population on co-incubation ([3]; escalating doses, HEK-CYP46A1 cells, 18F-CHL-2205 tracer)	displacement of 18F-CHL-2205 [14]	autoradiography signal on co-incubation [15]
no off-target activity	signal diminished	fivefold increase	21.9	117.3	consistently higher	stable against radio defluorination	0.012	higher in women than in men	stable against radio defluorination	stable against radio defluorination	Greater than 99%	greater than 90%	rapid tracer uptake into the brain	stable against radio defluorination	CN(C(=O)C1CCN(c2cncnc2-c2ccc([18F])cc2)CC1)C1CC1 [18F-CHL-2205, N-cyclopropyl-1-(4-(4-(fluoro-18F)phenyl)pyrimidin-5-yl)-N-methylpiperidine-4-carboxamide]	–	–	–	–	–
–	–	–	–	–	–	–	–	–	–	–	–	–	–	–	O=C(c1cccnc1-c1ccncc1)N1CCC(O)(Cc2ccccc2)CC1 [soticlestat]	reduced to the signal observed in Cyp46A1−/− animals	> 90	attenuated in a dose-dependent manner	competitive displacement	relative signal reduction
–	–	–	–	–	–	–	–	–	–	–	–	–	–	–	C[C@@H](c1ncncc1F)[C@](O)(Cn1cncn1)c1ccc(F)cc1F [voriconazole]	–	–	–	competitive displacement	–
